Data published in patent publication US20250228239A1, “MOLECULES HAVING PESTICIDAL UTILITY, AND INTERMEDIATES, COMPOSITIONS, AND PROCESSES, RELATED THERETO” (priority 2024, published 2025).
Like-named read-outs stand apart in the source and are kept apart here.

Experiments:
Type in all cases: in vivo
[1] = system: Cabbage Looper (Trichoplusia ni, TRIPNI); assay: Bioassays on Cabbage Looper (CL), 128-well diet tray assay; conditions: Trichoplusia ni, read-out: CL
In short: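 Percent mortality, averaged across eight replicate wells, after second-instar larvae (1–5 per well) fed for five to seven days on diet dosed at 50 μg/cm^2. Compound was applied in acetone-water 90:10 and dried; trays kept vented at 25° C under 14:10 photoperiod.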

[2] = system: Beet Armyworm (Spodoptera exigua, LAPHEG); assay: Bioassays on Beet Armyworm (BAW), 128-well diet tray assay; conditions: Spodoptera exigua, read-out: BAW
In short: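 Larvae at second instar are exposed on dried, compound-treated diet (50 μg/cm^2, delivered in 90:10 acetone-water) in eight replicate wells. After five to seven days at 25° C., 14:10 light-dark, percent mortality in each well is scored and the eight wells averaged.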

[3] = system: Yellow Fever Mosquito (Aedes aegypti, AEDSAE)
In short: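 Larvae ~1 day old, in liver powder/water; compound from 4000 ppm DMSO stock diluted with water/acetone (90:10); 6 reps; lidded, RT, 3 d; mortality scored per well, rated.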

[4] = Table ABC: Biological Results, species CL
[5] = Table ABC: Biological Results, species BAW
[6] = Table ABC: Biological Results, species YFM
[7] = Yellow Fever Mosquito, rating class

| SMILES | pest or weed control at 50 µg/cm2 [1, 4] [%] | pest or weed control at 50 µg/cm2 [2, 5] [%] | YFM [3, 6] | pest or weed control at 50 µg/cm2 ([1]; Cabbage Looper, rating class) [%] | pest or weed control at 50 µg/cm2 ([2]; Beet Armyworm, rating class) [%] | YFM [3, 7] |
| --- | --- | --- | --- | --- | --- | --- |
| O=C(Nc1ccc(F)c(NC(=O)C(F)F)c1F)c1cc(NC(=O)[C@H]2[C@H](c3ccc(Cl)c(Br)c3)C2(Cl)Cl)ccc1Cl (relative stereo) [F1359, trans-5-(3-(3-Bromo-4-chlorophenyl)-2,2-dichlorocyclopropane-1-carboxamido)-2-chloro-N-(3-(2,2-difluoroacetamido)-2,4-difluorophenyl)benzamide] | 50 to 100 | 50 to 100 | A (80–100) | – | – | – |
| Nc1cc(NC(=O)c2cc(NC(=O)[C@H]3[C@H](c4ccc(F)c(Cl)c4)C3(Cl)Cl)ccc2Cl)ccc1Cl (relative stereo) [F1365, trans-N-(3-Amino-4-chlorophenyl)-2-chloro-5-(2,2-dichloro-3-(3-chloro-4-fluorophenyl)cyclopropane-1-carboxamido)benzamide] | 50 to 100 | 50 to 100 | A (80–100) | – | – | – |
| O=C(Nc1cc(Cl)c(NC(=O)C(F)(F)F)c(Cl)c1)c1cc(NC(=O)[C@H]2[C@H](c3ccc(F)c(Cl)c3)C2(Cl)Cl)ccc1Cl (relative stereo) [F1368, trans-2-Chloro-5-(2,2-dichloro-3-(3-chloro-4-fluorophenyl)cyclopropane-1-carboxamido)-N-(3,5-dichloro-4-(2,2,2-trifluoroacetamido)phenyl)benzamide] | 50 to 100 | 50 to 100 | A (80–100) | – | – | – |
| Nc1ccc(NC(=O)c2cc(NC(=O)[C@H]3[C@H](c4ccc(F)c(Cl)c4)C3(Cl)Cl)ccc2Cl)cc1Cl (relative stereo) [F1370, trans-N-(4-Amino-3-chlorophenyl)-2-chloro-5-(2,2-dichloro-3-(3-chloro-4-fluorophenyl)cyclopropane-1-carboxamido)benzamide] | 50 to 100 | 50 to 100 | A (80–100) | – | – | – |
| O=C(Nc1ccc(NC(=O)C(F)(F)F)c(Cl)c1)c1cc(NC(=O)[C@H]2[C@H](c3ccc(F)c(Cl)c3)C2(Cl)Cl)ccc1Cl (relative stereo) [F1384, trans-2-Chloro-N-(3-chloro-4-(2,2,2-trifluoroacetamido)phenyl)-5-(2,2-dichloro-3-(3-chloro-4-fluorophenyl)cyclopropane-1-carboxamido)benzamide] | 50 to 100 | 50 to 100 | A (80–100) | – | – | – |
| N#Cc1cc(NC(=O)c2cc(NC(=O)[C@H]3[C@H](c4ccc(F)c(Cl)c4)C3(Cl)Cl)ccc2Cl)ccc1N (relative stereo) [F1387, trans-N-(4-Amino-3-cyanophenyl)-2-chloro-5-(2,2-dichloro-3-(3-chloro-4-fluorophenyl)cyclopropane-1-carboxamido)benzamide] | 50 to 100 | 50 to 100 | A (80–100) | – | – | – |
| Nc1ccc(NC(=O)c2cc(NC(=O)[C@H]3[C@H](c4ccc(F)c(Cl)c4)C3(Cl)Cl)ccc2Cl)cc1C(F)(F)F (relative stereo) [F1390, trans-N-(4-Amino-3-(trifluoromethyl)phenyl)-2-chloro-5-(2,2-dichloro-3-(3-chloro-4-fluorophenyl)cyclopropane-1-carboxamido)benzamide] | 50 to 100 | 50 to 100 | A (80–100) | – | – | – |
| O=C(Nc1ccc(NC(=O)C(F)(F)F)c(C(F)(F)F)c1)c1cc(NC(=O)[C@H]2[C@H](c3ccc(F)c(Cl)c3)C2(Cl)Cl)ccc1Cl (relative stereo) [F1393, trans-2-Chloro-5-(2,2-dichloro-3-(3-chloro-4-fluorophenyl)cyclopropane-1-carboxamido)-N-(4-(2,2,2-trifluoroacetamido)-3-(trifluoromethyl)phenyl)benzamide] | – | – | – | 50 to 100 | 50 to 100 | A (80–100) |
| Nc1c(F)ccc(NC(=O)c2cc(NC(=O)[C@H]3[C@H](c4ccc(Br)cc4)C3(Cl)Cl)ccc2Cl)c1F (relative stereo) [F1591, trans-N-(3-Amino-2,4-difluorophenyl)-5-(3-(4-bromophenyl)-2,2-dichlorocyclopropane-1-carboxamido)-2-chlorobenzamide] | – | – | – | 50 to 100 | 50 to 100 | A (80–100) |
| Nc1c(F)ccc(NC(=O)c2cc(NC(=O)[C@H]3[C@H](c4ccc(F)cc4)C3(Cl)Cl)ccc2Cl)c1F (relative stereo) [F1592, trans-N-(3-Amino-2,4-difluorophenyl)-2-chloro-5-(2,2-dichloro-3-(4-fluorophenyl)cyclopropane-1-carboxamido)benzamide] | – | – | – | 50 to 100 | 50 to 100 | A (80–100) |
| Nc1c(F)ccc(NC(=O)c2cc(NC(=O)[C@H]3[C@H](c4cccc(Br)c4)C3(Cl)Cl)ccc2Cl)c1F (relative stereo) [F1594, trans-N-(3-Amino-2,4-difluorophenyl)-5-(3-(3-bromophenyl)-2,2-dichlorocyclopropane-1-carboxamido)-2-chlorobenzamide] | – | – | – | 50 to 100 | 50 to 100 | A (80–100) |
| Nc1c(F)ccc(NC(=O)c2cc(NC(=O)[C@H]3[C@H](c4cccc(Cl)c4)C3(Cl)Cl)ccc2Cl)c1F (relative stereo) [F1595, trans-N-(3-Amino-2,4-difluorophenyl)-2-chloro-5-(2,2-dichloro-3-(3-chlorophenyl)cyclopropane-1-carboxamido)benzamide] | – | – | – | 50 to 100 | 50 to 100 | A (80–100) |
| Nc1c(F)ccc(NC(=O)c2cc(NC(=O)[C@H]3[C@H](c4cccc(F)c4)C3(Cl)Cl)ccc2Cl)c1F (relative stereo) [F1596, trans-N-(3-Amino-2,4-difluorophenyl)-2-chloro-5-(2,2-dichloro-3-(3-fluorophenyl)cyclopropane-1-carboxamido)benzamide] | – | – | – | 50 to 100 | 50 to 100 | A (80–100) |
| O=C(Nc1ccc(F)c(NC(=O)C(F)F)c1F)c1cc(NC(=O)[C@H]2[C@H](c3ccc(Br)cc3)C2(Cl)Cl)ccc1Cl (relative stereo) [F1597, trans-5-(3-(4-Bromophenyl)-2,2-dichlorocyclopropane-1-carboxamido)-2-chloro-N-(3-(2,2-difluoroacetamido)-2,4-difluorophenyl)benzamide] | – | – | – | 50 to 100 | 50 to 100 | A (80–100) |
| O=C(Nc1ccc(F)c(NC(=O)C(F)F)c1F)c1cc(NC(=O)[C@H]2[C@H](c3ccc(Cl)cc3)C2(Cl)Cl)ccc1Cl (relative stereo) [F1599, trans-2-Chloro-5-(2,2-dichloro-3-(4-chlorophenyl)cyclopropane-1-carboxamido)-N-(3-(2,2-difluoroacetamido)-2,4-difluorophenyl)benzamide] | – | – | – | 50 to 100 | 50 to 100 | A (80–100) |
| O=C(Nc1ccc(F)c(NC(=O)C(F)F)c1F)c1cc(NC(=O)[C@H]2[C@H](c3cccc(Br)c3)C2(Cl)Cl)ccc1Cl (relative stereo) [F1600, trans-5-(3-(3-Bromophenyl)-2,2-dichlorocyclopropane-1-carboxamido)-2-chloro-N-(3-(2,2-difluoroacetamido)-2,4-difluorophenyl)benzamide] | – | – | – | 50 to 100 | 50 to 100 | A (80–100) |
| O=C(Nc1ccc(F)c(NC(=O)C(F)F)c1F)c1cc(NC(=O)[C@H]2[C@H](c3cccc(Cl)c3)C2(Cl)Cl)ccc1Cl (relative stereo) [F1601, trans-2-Chloro-5-(2,2-dichloro-3-(3-chlorophenyl)cyclopropane-1-carboxamido)-N-(3-(2,2-difluoroacetamido)-2,4-difluorophenyl)benzamide] | – | – | – | 50 to 100 | 50 to 100 | A (80–100) |
| O=C(Nc1ccc(F)c(NC(=O)C(F)F)c1F)c1cc(NC(=O)[C@H]2[C@H](c3cccc(F)c3)C2(Cl)Cl)ccc1Cl (relative stereo) [F1602, trans-2-Chloro-5-(2,2-dichloro-3-(3-fluorophenyl)cyclopropane-1-carboxamido)-N-(3-(2,2-difluoroacetamido)-2,4-difluorophenyl)benzamide] | – | – | – | 50 to 100 | 50 to 100 | A (80–100) |
| O=C(Nc1ccc(F)c(NC(=O)C(F)F)c1F)c1cc(NC(=O)[C@H]2[C@H](c3cc(Cl)cc(Br)c3)C2(Cl)Cl)ccc1Cl (relative stereo) [F1618, trans-5-(3-(3-Bromo-5-chlorophenyl)-2,2-dichlorocyclopropane-1-carboxamido)-2-chloro-N-(3-(2,2-difluoroacetamido)-2,4-difluorophenyl)benzamide] | – | – | – | 50 to 100 | 50 to 100 | A (80–100) |
| CC(=O)Nc1cc(F)c(F)cc1NC(=O)c1cc(NC(=O)[C@H]2[C@H](c3cc(Cl)cc(Cl)c3)C2(Cl)Cl)ccc1Cl (relative stereo) [F1634, trans-N-(2-Acetamido-4,5-difluorophenyl)-2-chloro-5-(2,2-dichloro-3-(3,5-dichlorophenyl)cyclopropane-1-carboxamido)benzamide] | – | – | – | 50 to 100 | 50 to 100 | B (More than 0 – Less than 80) |
